Reference: ChEMBL document CHEMBL5321200, “Discovery of the GSH responsive "Y-PROTACs" targeting ALK and CDK4/6 as a potential treatment for cancer” (Eur J Med Chem, 2023)
Calls of active or inactive are those of the source. The calls are words filed in the database; no cut-off is given here.

Tests used:
[1] = test system: NCI-H1299; test: Antiproliferative activity against human NCI-H1299 cells assessed as inhibition of cell growth incubated for 3 to 5 days by MTT assay; assay type: functional, cell-based
[2] = test system: NCI-H3122; test: Antiproliferative activity against human NCI-H3122 cells assessed as inhibition of cell growth incubated for 3 to 5 days by MTT assay; assay type: functional, cell-based
[3] = test system: NCI-H3122; test: Antiproliferative activity against human NCI-H3122 cells assessed as inhibition of cell growth pretreated with GSH followed by compound addition and incubated for 3 to 5 days by MTT assay; assay type: functional, cell-based
[4] = Cytotoxicity against human L02 cells assessed as inhibition of cell growth pretreated with GSH followed by compound addition and incubated for 3 to 5 days by MTT assay; assay type: toxicity, cell-based
[5] = target: T1, Protein cereblon/Cyclin-dependent kinase 4 (Homo sapiens, UniProt P11802+Q96SW2); test: PROTAC activity at CRBN/CDK4 in human NCI-H3122 cells assessed as induction of CDK4 protein degradation at 10 uM incubated for 24 hrs by Western blot analysis relative to control; assay type: cell-based
[6] = target: Protein cereblon/Cyclin-dependent kinase 6 (Homo sapiens) (UniProt Q00534+Q96SW2); test: PROTAC activity at CRBN/CDK6 in human NCI-H3122 cells assessed as reduction in CDK6 protein level at 1 to 10 uM incubated for 24 hrs by Western blot analysis; assay type: cell-based; conditions: dose 1-10 µM
[7] = target: T1, Protein cereblon/Cyclin-dependent kinase 4; test: PROTAC activity at CRBN/CDK4 in human NCI-H3122 cells assessed as decrease in CDK4 protein level at 0.1 to 20 uM incubated for 24 hrs in presence of GSH by Western blot analysis; assay type: cell-based; conditions: dose 0.1-20 µM
[8] = target: Cyclin-dependent kinase 4 (Homo sapiens) (UniProt P11802); test: Inhibition of CDK4 (unknown origin) at 0.05 uM by LANCE Ultra TR-FRET assay relative to control
[9] = target: Cyclin-dependent kinase 6 (Homo sapiens) (UniProt Q00534); test: Inhibition of CDK6 (unknown origin) at 0.05 uM by LANCE Ultra TR-FRET assay relative to control
[10] = Stability of the compound in mouse plasma assessed as cleavage to metabolites measured after 4 hrs by LC-MS/MS analysis relative to control; assay type: ADME, cell-free
[11] = target: T2, Protein cereblon/ALK tyrosine kinase receptor/Echinoderm microtubule-associated protein-like 4 (Homo sapiens) (UniProt Q9UM73+Q9HC35+Q96SW2); test: PROTAC activity at CRBN/EML4-ALK in human NCI-H3122 cells assessed as induction of EML4-ALK fusion protein degradation at 5 uM measured at 16 to 48 hrs by Western blot analysis; assay type: cell-based; conditions: time 16-48 hrs
[12] = target: T2, Protein cereblon/ALK tyrosine kinase receptor/Echinoderm microtubule-associated protein-like 4 (Homo sapiens); test: PROTAC activity at CRBN/EML4-ALK in human NCI-H3122 cells assessed as reduction in EML4-ALK fusion protein level at 5 uM incubated for 48 hrs followed by compound washout and measured within 16 hrs by Western blot analysis; assay type: cell-based
[13] = target: T2, Protein cereblon/ALK tyrosine kinase receptor/Echinoderm microtubule-associated protein-like 4 (Homo sapiens); test: PROTAC activity at CRBN/EML4-ALK in human NCI-H3122 cells assessed as degradation of EML4-ALK fusion protein at 5 uM pretreated with MG132 for 4 hrs followed compound addition and measured after 24 hrs by Western blot analysis; assay type: cell-based
[14] = test system: NCI-H3122; test: Cell cycle arrest in human NCI-H3122 cells assessed as G2/M phase cells at 1.25 uM incubated for 24 hrs by propidium iodide staining based flow cytometric analysis (reference value: 20.89%); assay type: functional
[15] = test system: NCI-H3122; test: Cell cycle arrest in human NCI-H3122 cells assessed as G2/M phase cells at 2.5 uM incubated for 24 hrs by propidium iodide staining based flow cytometric analysis (reference value: 20.89%); assay type: functional
[16] = test system: NCI-H3122; test: Induction of apoptosis in human NCI-H3122 cells assessed as viable cells at 0.312 uM incubated for 48 hrs by Annexin V-FITC/propidium iodide staining based flow cytometric analysis (reference value: 95.66%); assay type: functional; conditions: read-out: Activity
[17] = test system: NCI-H3122; test: Induction of apoptosis in human NCI-H3122 cells assessed as viable cells at 1.25 uM incubated for 48 hrs by Annexin V-FITC/propidium iodide staining based flow cytometric analysis (reference value: 95.66%); assay type: functional; conditions: read-out: Activity
[18] = test system: NCI-H3122; test: Induction of apoptosis in human NCI-H3122 cells assessed as early apoptotic cells at 1.25 uM incubated for 48 hrs by Annexin V-FITC/propidium iodide staining based flow cytometric analysis (reference value: 0.71%); assay type: functional
[19] = test system: NCI-H3122; test: Induction of apoptosis in human NCI-H3122 cells assessed as early apoptotic cells at 2.5 uM incubated for 48 hrs by Annexin V-FITC/propidium iodide staining based flow cytometric analysis (reference value: 0.71%); assay type: functional
[20] = test system: NCI-H3122; test: Induction of apoptosis in human NCI-H3122 cells assessed as late apoptotic cells at 2.5 uM incubated for 48 hrs by Annexin V-FITC/propidium iodide staining based flow cytometric analysis (reference value: 3.06%); assay type: functional
[21] = test system: NCI-H3122; test: Induction of apoptosis in human NCI-H3122 cells assessed as necrotic cells at 0.625 uM incubated for 48 hrs by Annexin V-FITC/propidium iodide staining based flow cytometric analysis (reference value: 0.57%); assay type: functional
[22] = test system: NCI-H3122; test: Induction of apoptosis in human NCI-H3122 cells assessed as total apoptotic cells at 2.5 uM incubated for 48 hrs by Annexin V-FITC/propidium iodide staining based flow cytometric analysis relative to control; assay type: functional
[23] = test system: NCI-H3122; test: Inhibition of colony formation in human NCI-H3122 cells assessed as reduction in number of colonies measured after 10 days by crystal violet staining based microscopic analysis; assay type: functional, cell-based; conditions: dose 0.039-0.312 µM, time 10.0 day
[24] = test system: NCI-H3122; test: Inhibition of colony formation in human NCI-H3122 cells assessed as reduction in number of colonies at 0.312 uM measured after 10 days by crystal violet staining based microscopic analysis relative to control; assay type: functional; conditions: NCI-H3122, 240 h, time 10 day
[25] = Toxicity in BALB/c nude mouse xenografted with human NCI-H3122 cells assessed as reduction in body weight at 25 to 75 mg/kg, IG administered once daily for 18 days; assay type: organism-based; conditions: in vivo, po, 432 h, dose 25-75 mg/kg, time 18 day
[26] = Toxicity in BALB/c nude mouse xenografted with human NCI-H3122 cells assessed as effect on visceral lung morphology at 75 mg/kg, IG administered once daily for 18 days and measured after 12 hrs of last dose by H and E staining based analysis; assay type: organism-based; conditions: in vivo, po, 444 h
[27] = Toxicity in BALB/c nude mouse xenografted with human NCI-H3122 cells assessed as effect on visceral kidney morphology at 75 mg/kg, IG administered once daily for 18 days and measured after 12 hrs of last dose by H and E staining based analysis; assay type: organism-based; conditions: in vivo, po, 444 h
[28] = Toxicity in BALB/c nude mouse xenografted with human NCI-H3122 cells assessed as effect on kidney function at 75 mg/kg, IG administered once daily for 18 days by H and E staining based assay; assay type: organism-based; conditions: in vivo, po, 432 h, time 18 day
[29] = target: T1, Protein cereblon/Cyclin-dependent kinase 4; test: PROTAC activity at CRBN/CDK4 in human NCI-H3122 cells assessed as induction of CDK4 degradation at 5 uM pretreated with MG132 for 4 hrs followed compound addition and measured after 24 hrs by Western blot analysis; assay type: cell-based

T1 sequence (P11802 2-303 limits assumed): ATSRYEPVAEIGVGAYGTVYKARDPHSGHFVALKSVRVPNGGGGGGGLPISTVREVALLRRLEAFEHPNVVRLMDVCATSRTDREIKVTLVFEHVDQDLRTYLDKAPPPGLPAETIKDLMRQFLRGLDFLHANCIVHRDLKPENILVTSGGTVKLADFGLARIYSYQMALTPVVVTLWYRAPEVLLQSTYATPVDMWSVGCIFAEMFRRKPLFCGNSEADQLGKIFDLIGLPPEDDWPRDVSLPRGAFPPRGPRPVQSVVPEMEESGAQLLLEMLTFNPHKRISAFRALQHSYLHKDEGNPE
T1 sequence (Q96SW2 whole entry partner): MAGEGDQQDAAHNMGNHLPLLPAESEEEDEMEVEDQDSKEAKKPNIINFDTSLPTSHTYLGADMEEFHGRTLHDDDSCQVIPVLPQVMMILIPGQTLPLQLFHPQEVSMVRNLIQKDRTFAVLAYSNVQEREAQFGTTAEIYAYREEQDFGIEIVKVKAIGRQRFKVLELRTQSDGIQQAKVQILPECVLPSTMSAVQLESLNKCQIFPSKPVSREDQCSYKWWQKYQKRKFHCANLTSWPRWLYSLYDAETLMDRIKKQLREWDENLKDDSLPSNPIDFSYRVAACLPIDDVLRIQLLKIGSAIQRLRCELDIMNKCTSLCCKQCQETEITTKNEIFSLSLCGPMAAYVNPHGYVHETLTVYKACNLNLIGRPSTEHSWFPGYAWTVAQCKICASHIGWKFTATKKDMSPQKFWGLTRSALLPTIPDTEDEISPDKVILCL
T2 sequence (Q96SW2 whole entry partner, the tested form may be a part): as the sequence (Q96SW2 whole entry partner) above
T2 sequence (Q9HC35 whole entry partner, the tested form may be a part): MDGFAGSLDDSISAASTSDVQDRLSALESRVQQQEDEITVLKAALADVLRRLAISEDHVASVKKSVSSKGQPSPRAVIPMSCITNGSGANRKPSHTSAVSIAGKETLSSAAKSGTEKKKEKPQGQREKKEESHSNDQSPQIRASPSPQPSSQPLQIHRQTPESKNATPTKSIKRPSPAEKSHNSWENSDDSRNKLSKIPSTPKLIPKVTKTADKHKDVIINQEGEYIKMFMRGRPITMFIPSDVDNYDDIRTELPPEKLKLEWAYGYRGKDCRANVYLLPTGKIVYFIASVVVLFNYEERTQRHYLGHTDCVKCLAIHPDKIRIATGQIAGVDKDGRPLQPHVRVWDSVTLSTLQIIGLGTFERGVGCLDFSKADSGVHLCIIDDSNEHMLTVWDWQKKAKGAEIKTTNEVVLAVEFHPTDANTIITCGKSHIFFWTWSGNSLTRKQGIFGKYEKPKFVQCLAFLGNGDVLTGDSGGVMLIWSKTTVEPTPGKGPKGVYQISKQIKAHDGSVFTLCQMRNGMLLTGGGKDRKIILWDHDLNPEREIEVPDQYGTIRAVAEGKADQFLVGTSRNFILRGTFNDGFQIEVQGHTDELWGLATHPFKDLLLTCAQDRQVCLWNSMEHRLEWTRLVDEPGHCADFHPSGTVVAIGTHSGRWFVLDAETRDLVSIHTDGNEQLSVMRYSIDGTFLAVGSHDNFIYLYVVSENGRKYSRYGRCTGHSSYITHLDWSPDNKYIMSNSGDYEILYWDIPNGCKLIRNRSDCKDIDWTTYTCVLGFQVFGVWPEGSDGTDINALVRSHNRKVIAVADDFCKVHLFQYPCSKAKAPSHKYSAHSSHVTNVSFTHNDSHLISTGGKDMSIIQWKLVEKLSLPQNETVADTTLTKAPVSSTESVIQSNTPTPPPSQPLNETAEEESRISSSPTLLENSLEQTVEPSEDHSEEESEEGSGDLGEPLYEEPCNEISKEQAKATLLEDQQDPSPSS
T2 sequence (Q9UM73 19-1620 limits assumed): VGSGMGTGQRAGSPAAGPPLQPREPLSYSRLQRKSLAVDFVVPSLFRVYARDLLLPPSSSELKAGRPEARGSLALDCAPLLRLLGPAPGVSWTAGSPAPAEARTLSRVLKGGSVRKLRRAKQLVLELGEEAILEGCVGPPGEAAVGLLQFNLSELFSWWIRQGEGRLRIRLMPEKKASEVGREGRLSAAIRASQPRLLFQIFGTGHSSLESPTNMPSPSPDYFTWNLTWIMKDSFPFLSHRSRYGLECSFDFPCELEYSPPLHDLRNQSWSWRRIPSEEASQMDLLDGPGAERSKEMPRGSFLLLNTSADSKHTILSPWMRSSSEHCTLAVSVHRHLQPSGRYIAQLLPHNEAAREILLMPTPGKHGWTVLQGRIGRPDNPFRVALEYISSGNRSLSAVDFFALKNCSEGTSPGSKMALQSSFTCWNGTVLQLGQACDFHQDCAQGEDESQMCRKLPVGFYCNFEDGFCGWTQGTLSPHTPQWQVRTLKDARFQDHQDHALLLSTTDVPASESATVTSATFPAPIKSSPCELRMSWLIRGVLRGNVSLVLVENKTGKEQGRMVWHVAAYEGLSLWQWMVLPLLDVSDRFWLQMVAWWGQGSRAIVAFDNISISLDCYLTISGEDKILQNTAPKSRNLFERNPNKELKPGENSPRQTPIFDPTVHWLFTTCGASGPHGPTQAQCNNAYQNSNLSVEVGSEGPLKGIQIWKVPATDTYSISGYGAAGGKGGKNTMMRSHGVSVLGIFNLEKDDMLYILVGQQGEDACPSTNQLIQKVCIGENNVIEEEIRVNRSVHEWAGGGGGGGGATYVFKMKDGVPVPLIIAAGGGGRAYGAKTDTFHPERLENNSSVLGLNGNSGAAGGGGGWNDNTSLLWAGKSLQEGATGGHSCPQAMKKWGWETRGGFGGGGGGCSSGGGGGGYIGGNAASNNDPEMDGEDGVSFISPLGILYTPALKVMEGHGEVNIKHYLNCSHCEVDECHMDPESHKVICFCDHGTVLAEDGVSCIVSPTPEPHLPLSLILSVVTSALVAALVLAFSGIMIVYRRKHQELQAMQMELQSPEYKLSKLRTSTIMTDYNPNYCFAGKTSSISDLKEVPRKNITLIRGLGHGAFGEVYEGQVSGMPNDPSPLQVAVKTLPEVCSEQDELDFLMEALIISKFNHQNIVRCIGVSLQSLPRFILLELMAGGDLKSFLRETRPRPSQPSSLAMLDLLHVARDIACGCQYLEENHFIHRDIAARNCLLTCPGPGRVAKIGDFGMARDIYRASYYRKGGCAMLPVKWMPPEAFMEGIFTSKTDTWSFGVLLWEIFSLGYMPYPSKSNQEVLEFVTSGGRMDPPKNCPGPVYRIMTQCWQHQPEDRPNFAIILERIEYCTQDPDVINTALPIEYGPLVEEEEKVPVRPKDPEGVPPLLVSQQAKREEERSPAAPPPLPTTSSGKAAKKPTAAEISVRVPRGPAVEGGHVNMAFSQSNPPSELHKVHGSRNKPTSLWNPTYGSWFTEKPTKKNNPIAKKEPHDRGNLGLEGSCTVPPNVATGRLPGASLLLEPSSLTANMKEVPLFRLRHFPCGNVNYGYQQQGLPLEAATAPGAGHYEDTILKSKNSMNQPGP
Chain of Cyclin-dependent kinase 6 (Homo sapiens) (Q00534 whole entry): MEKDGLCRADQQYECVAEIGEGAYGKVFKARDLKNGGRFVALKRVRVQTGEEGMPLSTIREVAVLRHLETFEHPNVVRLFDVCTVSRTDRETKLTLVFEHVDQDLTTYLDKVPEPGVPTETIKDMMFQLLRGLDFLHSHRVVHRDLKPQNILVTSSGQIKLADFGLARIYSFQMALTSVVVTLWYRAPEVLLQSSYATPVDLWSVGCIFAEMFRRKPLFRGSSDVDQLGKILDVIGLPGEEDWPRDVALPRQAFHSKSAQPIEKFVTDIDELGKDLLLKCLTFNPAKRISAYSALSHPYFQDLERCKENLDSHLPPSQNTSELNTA
Chain of Protein cereblon/Cyclin-dependent kinase 6 (Homo sapiens) (Q00534 whole entry, looked up): as the sequence (Q00534 whole entry) above
Chain of Protein cereblon/Cyclin-dependent kinase 6 (Homo sapiens) (Q96SW2 whole entry, looked up): as the sequence (Q96SW2 whole entry partner) above
Chain of Cyclin-dependent kinase 4 (Homo sapiens) (P11802 whole entry): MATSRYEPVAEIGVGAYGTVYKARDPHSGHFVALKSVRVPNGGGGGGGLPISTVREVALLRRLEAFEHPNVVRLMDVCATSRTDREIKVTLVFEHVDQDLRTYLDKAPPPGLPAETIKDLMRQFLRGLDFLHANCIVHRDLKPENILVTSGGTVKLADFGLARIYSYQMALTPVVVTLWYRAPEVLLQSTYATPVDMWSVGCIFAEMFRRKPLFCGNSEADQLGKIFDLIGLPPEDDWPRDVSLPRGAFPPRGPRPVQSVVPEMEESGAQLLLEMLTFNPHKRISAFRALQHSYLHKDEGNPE

IC50 [1]: 21.2 µM
IC50 [2]: 140 nM
IC50 [3]: 90 nM
Activity [5]: 70%
Activity [6]: inactive
Activity [7]: inactive
inhibition [8]: 54.9%
inhibition [9]: 92%
Drug degradation [10]: 30%
Activity [11]: Active
Activity [12]: Active
Activity [13]: inactive
Activity [29]: inactive
SMILES: CC(=O)c1c(C)c2cnc(Nc3ccc(N4CCN(CC(=O)NCCSSCCN(CC(=O)NCCNc5cccc6c5C(=O)N(C5CCC(=O)NC5=O)C6=O)C(=O)CCCCCCC(=O)N5CCC(c6cc(OC(C)C)c(Nc7ncc(Cl)c(Nc8ccccc8S(=O)(=O)C(C)C)n7)cc6C)CC5)CC4)cn3)nc2n(C2CCCC2)c1=O (centres undefined)
IC50 [4]: 12.7 µM
Activity [14]: 16.61%
Activity [15]: 11.78%
viability at 0.312 µM [16]: 91.5%
viability at 1.25 µM [17]: 86.6%
Activity [18]: 1.03%
Activity [19]: 1.35%
Activity [20]: 15.81%
Activity [21]: 2.11%
Activity [22]: 17.2%
inhibition [23]: Dose-Dependent Effect
inhibition at 0.312 µM [24]: 100%
Activity [25]: Non-Toxic
Activity [26]: Non-Toxic
Activity [27]: Non-Toxic
Activity [28]: Non-Toxic
